Values of other authors, collected in paper PMC7582727, “Functional Impact of BeKm-1, a High-Affinity hERG Blocker, on Cardiomyocytes Derived from Human-Induced Pluripotent Stem Cells” (International Journal of Molecular Sciences, 2020).
Positions of bridges follow the written chain, without caps; N, C: chain ends. Residues, ends and D or L forms follow the SMILES beside them.

Test system: hERG channel
Conditions: cited from earlier work
Excerpt: The Kv11.1 channel (hERG) and the corresponding IKr current play a major role in cardiac repolarization (Figure S1). […] Long QT syndrome is one of the cardiac diseases that has been studied in the greatest detail. Type II long QT syndrome is associated with a decrease in IKr currents, as opposed to short QT syndrome, which is associated with increased IKr currents. Type II long QT syndrome is called “inherited” when a mutation in the gene encoding hERG, KCNH2, gives rise to a loss of ... || In this report, we focused on BeKm-1, a toxin that was originally isolated from the venom of Buthus eupeus scorpion. […] According to its 3D structure, the peptide adopts an α-helix and three β-strands organized in a twisted antiparallel β-sheet. By homology with other toxins, BeKm-1 is a member of the γ-KTx subfamily of scorpion toxins.

## CC[C@H](C)[C@H](NC(=O)[C@H](CC(=O)O)NC(=O)[C@@H](NC(=O)[C@@H]1CCCN1C(=O)[C@@H](N)CCCNC(=N)N)[C@@H](C)O)C(=O)N[C@@H](CCCCN)C(=O)N[C@H]1CSSC[C@@H]2NC(=O)[C@H](CCCNC(=N)N)NC(=O)CNC(=O)[C@H](CC(N)=O)NC(=O)[C@H]([C@@H](C)O)NC(=O)[C@H](CCCCN)NC(=O)CNC(=O)[C@H](Cc3ccccc3)NC(=O)[C@H](CCCNC(=N)N)NC(=O)[C@H](CO)NC(=O)[C@H](CCCCN)NC(=O)[C@@H]3CSSC[C@@H](C(=O)N[C@@H](Cc4ccccc4)C(=O)O)NC(=O)[C@H](CC(=O)O)NC(=O)[C@H](CSSC[C@H](NC(=O)[C@H](CCC(N)=O)NC(=O)[C@H](Cc4ccc(O)cc4)NC(=O)[C@H](CO)NC(=O)[C@H](CCC(=O)O)NC(=O)[C@H](CO)NC1=O)C(=O)N[C@@H](Cc1ccccc1)C(=O)N1CCC[C@H]1C(=O)N[C@@H](C(C)C)C(=O)N3)NC(=O)[C@H](Cc1ccccc1)NC(=O)CNC(=O)[C@H](CC(N)=O)NC(=O)[C@H](C(C)C)NC2=O [BeKm-1] (H-RPTDIKCSESYQCFPVCKSRFGKTNGRCVNGFCDCF-OH; disulfide 7-28, 13-33, 17-35 (inferred); N-terminus and C-terminus assumed)
In cardiomyocytes, no ref at the statement
  selectivity for hERG: highly selective for the hERG channel in cardiomyocytes
read-out: IC50, hERG (reported), ref [1],[2],[3],[4]
  IC50: 3.3 to 15.3 nM
Ref [1]
  other targets: no other targets have been reported
Ref [4]
  channel state blocked: blocks the closed state of the channel
Ref [9]
  binding site (face of channel): preferentially binds the hERG outer mouth
